The NIST ThermoML archive (doi:10.1016/j.jct.2017.01.016)

Assay: xn = mol fraction of the nth substance listed
Conditions: 101 kPa, Liquid; for viscosity: Capillary tube (Ostwald / Ubbelohde) method; for speed of sound: Frequency=3 MHz, Linear variable-path acoustic interferometer

Cc1cccc(C)c1 [1,3-dimethylbenzene] + C1COCCO1
Conditions | speed of sound [m/s] | viscosity [mPa·s]
293.15 K, x2 = 0 | 1346.7 | 0.6184
293.15 K, x2 = 0.0938 | 1341.2 | 0.674
293.15 K, x2 = 0.1532 | 1338.2 | 0.7104
293.15 K, x2 = 0.2046 | 1335.9 | 0.7427
293.15 K, x2 = 0.2698 | 1333.4 | 0.7843
293.15 K, x2 = 0.3374 | 1331.4 | 0.8284
293.15 K, x2 = 0.4002 | 1330.1 | 0.8702
293.15 K, x2 = 0.4714 | 1329.3 | 0.9186
293.15 K, x2 = 0.5487 | 1329.6 | 0.9721
293.15 K, x2 = 0.63 | 1331.2 | 1.03
293.15 K, x2 = 0.7182 | 1335 | 1.093
293.15 K, x2 = 0.8035 | 1341 | 1.156
293.15 K, x2 = 0.8708 | 1347.8 | 1.207
293.15 K, x2 = 0.9324 | 1355.8 | 1.254
298.15 K, x2 = 0 | 1323.6 | 0.584
298.15 K, x2 = 0.0938 | 1318.3 | 0.633
298.15 K, x2 = 0.1532 | 1315.4 | 0.6651
298.15 K, x2 = 0.2046 | 1313.2 | 0.6934
298.15 K, x2 = 0.2698 | 1310.8 | 0.7303
298.15 K, x2 = 0.3374 | 1308.8 | 0.7694
298.15 K, x2 = 0.4002 | 1307.6 | 0.8064
298.15 K, x2 = 0.4714 | 1307 | 0.8493
298.15 K, x2 = 0.5487 | 1307.3 | 0.8968
298.15 K, x2 = 0.63 | 1309.1 | 0.948
298.15 K, x2 = 0.7182 | 1312.9 | 1.005
298.15 K, x2 = 0.8035 | 1318.8 | 1.061
298.15 K, x2 = 0.8708 | 1325.5 | 1.106
298.15 K, x2 = 0.9324 | 1333.5 | 1.148
303.15 K, x2 = 0 | 1302.4 | 0.5517
303.15 K, x2 = 0.0938 | 1297.2 | 0.5953
303.15 K, x2 = 0.1532 | 1294.4 | 0.6236
303.15 K, x2 = 0.2046 | 1292.2 | 0.6487
303.15 K, x2 = 0.2698 | 1289.8 | 0.6811
303.15 K, x2 = 0.3374 | 1287.9 | 0.7159
303.15 K, x2 = 0.4002 | 1286.6 | 0.7488
303.15 K, x2 = 0.4714 | 1286 | 0.787
303.15 K, x2 = 0.5487 | 1286.3 | 0.8293
303.15 K, x2 = 0.63 | 1288.1 | 0.875
303.15 K, x2 = 0.7182 | 1291.9 | 0.9258
303.15 K, x2 = 0.8035 | 1297.7 | 0.976
303.15 K, x2 = 0.8708 | 1304.4 | 1.016
303.15 K, x2 = 0.9324 | 1312.2 | 1.054
308.15 K, x2 = 0 | 1282.3 | 0.5229
308.15 K, x2 = 0.0938 | 1277.1 | 0.5621
308.15 K, x2 = 0.1532 | 1274.3 | 0.5875
308.15 K, x2 = 0.2046 | 1272.1 | 0.6101
308.15 K, x2 = 0.2698 | 1269.7 | 0.6392
308.15 K, x2 = 0.3374 | 1267.8 | 0.6706
308.15 K, x2 = 0.4002 | 1266.5 | 0.7002
308.15 K, x2 = 0.4714 | 1265.8 | 0.7347
308.15 K, x2 = 0.5487 | 1266 | 0.773
308.15 K, x2 = 0.63 | 1267.7 | 0.8144
308.15 K, x2 = 0.7182 | 1271.2 | 0.8604
308.15 K, x2 = 0.8035 | 1276.9 | 0.9061
308.15 K, x2 = 0.8708 | 1283.2 | 0.943
308.15 K, x2 = 0.9324 | 1290.7 | 0.9769
313.15 K, x2 = 0 | 1262.3 | 0.4938
313.15 K, x2 = 0.0938 | 1257.2 | 0.5297
313.15 K, x2 = 0.1532 | 1254.3 | 0.553
313.15 K, x2 = 0.2046 | 1252.2 | 0.5737
313.15 K, x2 = 0.2698 | 1249.8 | 0.6005
313.15 K, x2 = 0.3374 | 1247.9 | 0.6291
313.15 K, x2 = 0.4002 | 1246.6 | 0.6563
313.15 K, x2 = 0.4714 | 1245.8 | 0.688
313.15 K, x2 = 0.5487 | 1246 | 0.7231
313.15 K, x2 = 0.63 | 1247.5 | 0.7611
313.15 K, x2 = 0.7182 | 1250.9 | 0.8034
313.15 K, x2 = 0.8035 | 1256.4 | 0.8453
313.15 K, x2 = 0.8708 | 1262.4 | 0.8793
313.15 K, x2 = 0.9324 | 1269.6 | 0.9105
318.15 K, x2 = 0 | 1243 | 0.468
318.15 K, x2 = 0.0938 | 1237.9 | 0.501
318.15 K, x2 = 0.1532 | 1235.1 | 0.5226
318.15 K, x2 = 0.2046 | 1232.9 | 0.5416
318.15 K, x2 = 0.2698 | 1230.5 | 0.5665
318.15 K, x2 = 0.3374 | 1228.5 | 0.5928
318.15 K, x2 = 0.4002 | 1227.2 | 0.6178
318.15 K, x2 = 0.4714 | 1226.4 | 0.647
318.15 K, x2 = 0.5487 | 1226.5 | 0.6794
318.15 K, x2 = 0.63 | 1227.9 | 0.7144
318.15 K, x2 = 0.7182 | 1231.1 | 0.7535
318.15 K, x2 = 0.8035 | 1236.2 | 0.7922
318.15 K, x2 = 0.8708 | 1242 | 0.8232
318.15 K, x2 = 0.9324 | 1248.9 | 0.852

Cc1ccc(C)cc1 [1,4-dimethylbenzene] + C1COCCO1
Conditions | speed of sound [m/s] | viscosity [mPa·s]
293.15 K, x2 = 0 | 1328.4 | 0.6505
293.15 K, x2 = 0.0716 | 1326.1 | 0.6921
293.15 K, x2 = 0.1445 | 1324.1 | 0.7358
293.15 K, x2 = 0.2132 | 1322.7 | 0.7779
293.15 K, x2 = 0.2871 | 1321.7 | 0.8239
293.15 K, x2 = 0.3582 | 1321.3 | 0.8691
293.15 K, x2 = 0.4358 | 1321.6 | 0.9192
293.15 K, x2 = 0.5042 | 1322.7 | 0.964
293.15 K, x2 = 0.5846 | 1325 | 1.018
293.15 K, x2 = 0.6543 | 1328.1 | 1.065
293.15 K, x2 = 0.7249 | 1332.5 | 1.113
293.15 K, x2 = 0.7923 | 1338.1 | 1.159
293.15 K, x2 = 0.8623 | 1345.6 | 1.208
293.15 K, x2 = 0.9311 | 1355.2 | 1.257
298.15 K, x2 = 0 | 1307.4 | 0.6115
298.15 K, x2 = 0.0716 | 1305.1 | 0.6484
298.15 K, x2 = 0.1445 | 1303.2 | 0.6871
298.15 K, x2 = 0.2132 | 1301.9 | 0.7245
298.15 K, x2 = 0.2871 | 1300.9 | 0.7654
298.15 K, x2 = 0.3582 | 1300.5 | 0.8054
298.15 K, x2 = 0.4358 | 1300.8 | 0.8499
298.15 K, x2 = 0.5042 | 1301.8 | 0.8898
298.15 K, x2 = 0.5846 | 1304 | 0.9374
298.15 K, x2 = 0.6543 | 1307 | 0.9792
298.15 K, x2 = 0.7249 | 1311.2 | 1.022
298.15 K, x2 = 0.7923 | 1316.6 | 1.064
298.15 K, x2 = 0.8623 | 1323.9 | 1.107
298.15 K, x2 = 0.9311 | 1333.1 | 1.151
303.15 K, x2 = 0 | 1287.3 | 0.5766
303.15 K, x2 = 0.0716 | 1285.1 | 0.6095
303.15 K, x2 = 0.1445 | 1283.2 | 0.644
303.15 K, x2 = 0.2132 | 1281.9 | 0.677
303.15 K, x2 = 0.2871 | 1280.9 | 0.7133
303.15 K, x2 = 0.3582 | 1280.5 | 0.7488
303.15 K, x2 = 0.4358 | 1280.8 | 0.7884
303.15 K, x2 = 0.5042 | 1281.8 | 0.8239
303.15 K, x2 = 0.5846 | 1283.9 | 0.8663
303.15 K, x2 = 0.6543 | 1286.8 | 0.9037
303.15 K, x2 = 0.7249 | 1290.8 | 0.9422
303.15 K, x2 = 0.7923 | 1296 | 0.9792
303.15 K, x2 = 0.8623 | 1303 | 1.018
303.15 K, x2 = 0.9311 | 1311.9 | 1.057
308.15 K, x2 = 0 | 1267.6 | 0.544
308.15 K, x2 = 0.0716 | 1265.4 | 0.5737
308.15 K, x2 = 0.1445 | 1263.6 | 0.605
308.15 K, x2 = 0.2132 | 1262.2 | 0.635
308.15 K, x2 = 0.2871 | 1261.2 | 0.6677
308.15 K, x2 = 0.3582 | 1260.8 | 0.6999
308.15 K, x2 = 0.4358 | 1261 | 0.7358
308.15 K, x2 = 0.5042 | 1261.8 | 0.768
308.15 K, x2 = 0.5846 | 1263.8 | 0.8064
308.15 K, x2 = 0.6543 | 1266.5 | 0.8403
308.15 K, x2 = 0.7249 | 1270.4 | 0.875
308.15 K, x2 = 0.7923 | 1275.4 | 0.9086
308.15 K, x2 = 0.8623 | 1282 | 0.9441
308.15 K, x2 = 0.9311 | 1290.5 | 0.9791
313.15 K, x2 = 0 | 1248.3 | 0.5132
313.15 K, x2 = 0.0716 | 1246.2 | 0.5407
313.15 K, x2 = 0.1445 | 1244.3 | 0.5693
313.15 K, x2 = 0.2132 | 1242.9 | 0.5968
313.15 K, x2 = 0.2871 | 1241.9 | 0.6269
313.15 K, x2 = 0.3582 | 1241.4 | 0.6565
313.15 K, x2 = 0.4358 | 1241.6 | 0.6894
313.15 K, x2 = 0.5042 | 1242.3 | 0.7189
313.15 K, x2 = 0.5846 | 1244.1 | 0.7542
313.15 K, x2 = 0.6543 | 1246.7 | 0.7853
313.15 K, x2 = 0.7249 | 1250.3 | 0.8172
313.15 K, x2 = 0.7923 | 1255 | 0.8479
313.15 K, x2 = 0.8623 | 1261.4 | 0.8802
313.15 K, x2 = 0.9311 | 1269.5 | 0.9126
318.15 K, x2 = 0 | 1229.8 | 0.4862
318.15 K, x2 = 0.0716 | 1227.7 | 0.5116
318.15 K, x2 = 0.1445 | 1225.8 | 0.538
318.15 K, x2 = 0.2132 | 1224.4 | 0.5633
318.15 K, x2 = 0.2871 | 1223.3 | 0.5911
318.15 K, x2 = 0.3582 | 1222.8 | 0.6185
318.15 K, x2 = 0.4358 | 1222.8 | 0.6488
318.15 K, x2 = 0.5042 | 1223.4 | 0.676
318.15 K, x2 = 0.5846 | 1225 | 0.7084
318.15 K, x2 = 0.6543 | 1227.4 | 0.737
318.15 K, x2 = 0.7249 | 1230.8 | 0.7663
318.15 K, x2 = 0.7923 | 1235.2 | 0.7946
318.15 K, x2 = 0.8623 | 1241.3 | 0.8244
318.15 K, x2 = 0.9311 | 1248.9 | 0.854
